Laboratory results reported in EPA's ToxRefDB 2.

Experiments:
rat [1] = conditions: Carcinogenicity, wistar, Oral, Feed, dose end: 104 week, group: systemic
rat [2] = conditions: Chronic toxicity, wistar, Oral, Feed, dose end: 12 month, group: systemic
dog [3] = conditions: Subchronic oral toxicity in nonrodent, beagle, Feed, dose end: 90 day, group: systemic, systemic / clinical chemistry / alanine aminotransferase (alt/sgpt) / alanine aminotransferase (alt/sgpt) + systemic / clinical chemistry / …
rat [4] = conditions: Subchronic oral toxicity in rodents, wistar, Feed, dose end: 90 day, group: systemic
rabbit [5] = conditions: Prenatal developmental toxicity study, himalayan, Oral, Gavage/Intubation, dose end: 19 GD
rat [6] = conditions: Prenatal developmental toxicity study, sprague dawley, Oral, Gavage/Intubation, dose end: 18 GD
rabbit [7] = conditions: Prenatal developmental toxicity study; himalayan; Oral; Gavage/Intubation; dose end: 18 GD; group: maternal; systemic / in life observation / body weight / body weight gain + systemic / in life observation / food consumption / food consumption
rabbit [8] = conditions: Prenatal developmental toxicity study, himalayan, Oral, Gavage/Intubation, dose end: 18 GD
dog [9] = conditions: Sub-acute repeat dose toxicity, beagle, Oral, Gavage/Intubation, dose end: 4 week, group: systemic
mouse = conditions: Subchronic oral toxicity in rodents, cd1, Gavage/Intubation, dose end: 90 day, group: systemic
rat [10] = conditions: Prenatal developmental toxicity study, sprague dawley, Oral, Gavage/Intubation, dose end: 18 GD; remark: listed apart in the source
rat [11] = conditions: Sub-acute repeat dose toxicity, sprague dawley, Oral, Gavage/Intubation, dose end: 4 week, group: systemic
[12] = systemic / pathology gross / lymph node / enlarged
[13] = systemic / pathology microscopic / stomach / edema + systemic / pathology microscopic / stomach / hyperkeratosis + systemic / pathology …
[14] = systemic / pathology gross / liver / foci
[15] = systemic / pathology gross / liver / foci + systemic / pathology gross / stomach / thickened + systemic / pathology microscopic / liver / …
[16] = systemic / pathology microscopic / kidney / hyaline droplet + systemic / pathology microscopic / kidney / protein + systemic / pathology …
[17] = systemic / pathology microscopic / stomach / hyperkeratosis + systemic / pathology microscopic / liver / hypertrophy + systemic / pathology …
[18] = group: developmental, developmental / developmental malformation / bone / [other] + developmental / developmental malformation / bone / fused + developmental / …
[19] = group: developmental, systemic / in life observation / body weight / fetal weight
[20] = group: maternal, systemic / in life observation / body weight / body weight gain
[21] = group: maternal, systemic / in life observation / body weight / body weight + systemic / in life observation / food consumption / food consumption
[22] = group: developmental, developmental / developmental malformation / bone / delayed ossification + developmental / developmental malformation / lung / [other]
[23] = group: developmental, developmental / developmental malformation / bone / delayed ossification + developmental / developmental malformation / lung / [other] + …
[24] = systemic / clinical chemistry / alkaline phosphatase (alp/alk) / alkaline phosphatase (alp/alk) + systemic / hematology / blood clotting / …
[25] = systemic / hematology / blood clotting / blood clotting - prothrombin time + systemic / hematology / reticulocyte / reticulocyte
[26] = systemic / in life observation / body weight / body weight + systemic / organ weight / brain / relative to body weight + systemic / organ …
[27] = systemic / in life observation / body weight / body weight + systemic / organ weight / liver / relative to body weight + systemic / …
[28] = group: developmental, developmental / developmental malformation / bone / incomplete ossification
[29] = group: maternal, systemic / in life observation / body weight / body weight + systemic / in life observation / food consumption / food consumption + systemic…
[30] = systemic / hematology / hematocrit (hct) / hematocrit (hct) + systemic / hematology / hemoglobin (hgb) / hemoglobin (hgb)
[31] = systemic / hematology / hematocrit (hct) / hematocrit (hct) + systemic / hematology / hemoglobin (hgb) / hemoglobin (hgb) + systemic / in …

[Cu+2].[O-]/N=[N+](\[O-])C1CCCCC1.[O-]/N=[N+](\[O-])C1CCCCC1
LEL (rat [1]; [12]): 6 mg/kg/day
NEL (rat [1]; [12]): < 6 mg/kg/day
LOAEL (rat [1]; [13]): 33 mg/kg/day
NOAEL (rat [1]; [13]): 6 mg/kg/day
LEL (rat [2]; [14]): 6.1 mg/kg/day
NEL (rat [2]; [14]): < 6.1 mg/kg/day
LOAEL (rat [2]; [15]): 61 mg/kg/day
NOAEL (rat [2]; [15]): 18.3 mg/kg/day
LEL (dog [3]): 69 mg/kg/day
LOAEL (dog [3]): 69 mg/kg/day
NEL (dog [3]): 26 mg/kg/day
NOAEL (dog [3]): 26 mg/kg/day
LOAEL (rat [4]; [16]): 140 mg/kg/day
NOAEL (rat [4]; [16]): 35 mg/kg/day
LEL (rat [4]; [17]): 125 mg/kg/day
NEL (rat [4]; [17]): < 125 mg/kg/day
LOAEL (rabbit [5]; [18]): 30 mg/kg/day
NOAEL (rabbit [5]; [18]): 10 mg/kg/day
LEL (rabbit [5]; [19]): 10 mg/kg/day
NEL (rabbit [5]; [19]): < 10 mg/kg/day
LEL (rabbit [5]; [20]): 10 mg/kg/day
NEL (rabbit [5]; [20]): < 10 mg/kg/day
LOAEL (rabbit [5]; group: maternal, systemic / in life observation / body weight / body weight gain + systemic / in life observation / food consumption / food consumption): 30 mg/kg/day
NOAEL (rabbit [5]; group: maternal, systemic / in life observation / body weight / body weight gain + systemic / in life observation / food consumption / food consumption + …): 10 mg/kg/day

OC12N=C(c3ccccc3)SC1Cc1cc(Cl)ccc12 (centres undefined) [HMR1426]
LEL (rat [6]; [19]): 1000 mg/kg/day
LOAEL (rat [6]; [19]): 1000 mg/kg/day
NEL (rat [6]; [19]): 500 mg/kg/day
NOAEL (rat [6]; [19]): 500 mg/kg/day
LEL (rat [6]; [21]): 500 mg/kg/day
LOAEL (rat [6]; [21]): 500 mg/kg/day
NEL (rat [6]; [21]): < 500 mg/kg/day
NOAEL (rat [6]; [21]): < 500 mg/kg/day
LEL (rabbit [7]): 500 mg/kg/day
LOAEL (rabbit [7]): > 1000 mg/kg/day
NEL (rabbit [7]): < 500 mg/kg/day
NOAEL (rabbit [7]): ≥ 1000 mg/kg/day
LEL (rabbit [8]; [22]): 62.5 mg/kg/day
NEL (rabbit [8]; [22]): < 62.5 mg/kg/day
LOAEL (rabbit [8]; [23]): > 1000 mg/kg/day
NOAEL (rabbit [8]; [23]): ≥ 1000 mg/kg/day
LEL (rabbit [8]; [21]): 62.5 mg/kg/day
LOAEL (rabbit [8]; [21]): > 1000 mg/kg/day
NEL (rabbit [8]; [21]): < 62.5 mg/kg/day
NOAEL (rabbit [8]; [21]): ≥ 1000 mg/kg/day
LOAEL (dog [9]; [24]): > 630 mg/kg/day
NOAEL (dog [9]; [24]): ≥ 630 mg/kg/day
LEL (dog [9]; [25]): 63 mg/kg/day
NEL (dog [9]; [25]): < 63 mg/kg/day
LOAEL (mouse; [26]): > 1600 mg/kg/day
NOAEL (mouse; [26]): ≥ 1600 mg/kg/day
LEL (mouse; [27]): 400 mg/kg/day
NEL (mouse; [27]): < 400 mg/kg/day
LEL (rat [10]; [28]): 315 mg/kg/day
LOAEL (rat [10]; [28]): 315 mg/kg/day
NEL (rat [10]; [28]): 100 mg/kg/day
NOAEL (rat [10]; [28]): 100 mg/kg/day
LEL (rat [10]; [21]): 100 mg/kg/day
NEL (rat [10]; [21]): < 100 mg/kg/day
LOAEL (rat [10]; [29]): 315 mg/kg/day
NOAEL (rat [10]; [29]): 100 mg/kg/day
LEL (rat [11]; [30]): 31.5 mg/kg/day
NEL (rat [11]; [30]): < 31.5 mg/kg/day
LOAEL (rat [11]; [31]): 315 mg/kg/day
NOAEL (rat [11]; [31]): 31.5 mg/kg/day
